Patent US20240368096A1 (Enanta Pharmaceuticals, Inc., priority 2022, published 2024)

tested on: HBV; experiment: HBV infection in HepG2-NTCP cells (HBeAg AlphaLISA in supernatants); type: cell-based; details: HBV infection of HepG2-NTCP cells; HBeAg in supernatants at day 8 post infection; read-out: Cellular EC50
Summary of the method: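 HepG2-NTCP A3 cells were pre-incubated 2 h with 3-fold serially diluted compounds, then infected with HBV at 2000 GE/cell with 4% PEG (0.5% DMSO final). After washing on day 1, cells stayed in 2.5% DMSO medium; supernatant HBeAg measured by AlphaLISA on day 8, EC50 versus DMSO controls.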

| EC50 [nM] | SMILES |
| --- | --- |
| > 1000 | Cc1ccc(C(=O)O)c(C)c1-c1cc2c(cc1Cl)N(c1ccccc1)C[C@@H](C1CCCCC1)N(C)S2(=O)=O [Example 147, 3-((3R)-7-chloro-3-cyclohexyl-2-methyl-1,1-dioxido-5-phenyl-2,3,4,5-tetrahydrobenzo[f][1,2,5]thiadiazepin-8-yl)-2,4-dimethylbenzoic acid] |

same assay, conditions: Hepatitis B virus, 192 h; HBV infection of HepG2-NTCP cells; HBeAg in supernatants at day 8 post infection; read-out: Cellular EC50

| EC50 [nM] | SMILES |
| --- | --- |
| 100 to 1000 | Cc1ccc(F)cc1Oc1cc2c(cc1-c1ccc(F)c(C(=O)O)c1)S(=O)(=O)N(C)[C@H](C1CCCCC1)CN2c1ccccc1 [Example 413] |
| < 100 | Cc1cc(COc2cc3c(cc2-c2cc(F)c(C(=O)O)s2)S(=O)(=O)N(C)[C@H](C2CCCCC2)CN3c2ccccc2)c(C)s1 [Example 492] |
| 100 to 1000 | CC(=O)N1CCN(c2cc3c(cc2-c2ccc(F)c(C(=O)O)c2)S(=O)(=O)N(C)[C@H](C2CCCCC2)CN3c2ccccc2)CC1 [Example 535] |
| 100 to 1000 | CC(C)C[C@@H]1CN(c2ccccc2)c2cc(Nc3ccccn3)c(-c3ccc(Cl)c(C(=O)O)c3)cc2S(=O)(=O)N1C [Example 549] |
| < 100 | CC(C)OC(=O)Nc1cc(-c2cc3c(cc2Cl)N(c2ccccc2)C[C@@H](C2CCCCC2)N(C)S3(=O)=O)sc1C(=O)O [Example 248] |
| 100 to 1000 | CC(C)C[C@@H]1CN(C2CC3(CCC3)C2)c2cc(Oc3ccccc3F)c(-c3ccc(F)c(C(=O)O)c3)cc2S(=O)(=O)N1C [Example 467] |
| < 100 | CN1[C@H](C2CCCCC2)CN(c2ccccc2)c2cc(OCc3nccs3)c(-c3ccc(F)c(C(=O)O)c3)cc2S1(=O)=O [Example 340] |
| < 100 | CCCCC[C@H](C)Oc1cc2c(cc1-c1cc(F)c(C(=O)O)s1)S(=O)(=O)N(C)[C@H](C1CCCCC1)CN2c1ccccc1 [Example 490] |
| > 1000 | CN1C(CC(F)(F)F)CN(c2ccccc2)c2cc(Cl)c(-c3ccc(F)c(C(=O)O)c3)cc2S1(=O)=O (centres unmarked) [Example 69] |
| 100 to 1000 | CN1[C@H](C2CCCCC2)CN(c2ccccc2)c2cc(Cl)c(-c3cc(C(=O)O)c4ccccc4c3)cc2S1(=O)=O [Example 196] |
| 100 to 1000 | CCCCC1CN(c2ccccc2)c2cc(CNc3ccccc3F)c(-c3ccc(F)c(C(=O)O)c3)cc2S(=O)(=O)N1C (centres unmarked) [Example 565] |
| > 1000 | Cn1nc(-c2cc3c(cc2F)N(c2ccccc2)CC2CC4(CC4)CN2S3(=O)=O)cc1C(=O)O (centres unmarked) [Example 8] |
| 100 to 1000 | CCC[C@@H]1CN(c2ccccc2)c2cc(Cl)c(-c3ccc(F)c(C(=O)O)c3)cc2S(=O)(=O)N1C [Example 47] |
| 100 to 1000 | CC(C)C[C@@H]1CN(c2ccccc2)c2cc(C3=CCC(C)(C)CC3)c(-c3ccc(C4=CCC(C)(C)CC4)c(C(=O)O)c3)cc2S(=O)(=O)N1C [Example 218] |
| 100 to 1000 | CN1C(CC2CCCC2)CN(c2ccccc2)c2cc(Cl)c(-c3ccc(Cl)c(C(=O)O)c3)cc2S1(=O)=O (centres unmarked) [Example 78] |
| 100 to 1000 | CN1[C@H](C2CCCCC2)CN(c2cc(F)c(F)c(F)c2)c2cc(Cl)c(-c3ccc(F)c(C(=O)O)c3)cc2S1(=O)=O [Example 298] |
| < 100 | CN1[C@H](C2CCCCC2)CN(c2ccccc2)c2cc(Cl)c(-c3ccc(NS(=O)(=O)CCC(F)(F)F)c(C(=O)O)c3)cc2S1(=O)=O [Example 268] |
| > 1000 | CC(C)C[C@@H]1CN(c2ccccc2)c2cc(OC3CN(C)C3)c(-c3ccc(F)c(C(=O)O)c3)cc2S(=O)(=O)N1C [Example 447] |
| 100 to 1000 | CN1[C@H](C2CCC2)CN(c2ccccc2)c2cc(Cl)c(-c3cccc(P(=O)(O)O)c3)cc2S1(=O)=O [Example 234] |
| 100 to 1000 | O=C(O)c1cccc(-c2cc3c(cc2F)N(c2ccccc2)C[C@H]2C[C@@H](C(F)(F)F)CN2S3(=O)=O)c1 [Example 9] |
| < 100 | CC(C)C[C@@H]1CN(c2ccccc2)c2cc(-c3cccc(F)c3)c(-c3ccc(F)c(C(=O)O)c3)cc2S(=O)(=O)N1C [Example 575] |
| 100 to 1000 | CC(C)C[C@@H]1CN(c2ccccc2)c2cc(Cl)c(-c3ccc(C#N)c(C(=O)O)c3)cc2S(=O)(=O)N1C [Example 187] |
